In US7297708B2, “Heteroaromatic substituted cyclopropane as corticotropin releasing hormone ligands” (Bristol-Myers Squibb Company, priority 2001, dated 2007):

SMILES: COc1ccccc1C1(c2ncc(C)c(-c3ccc(Cl)cc3Cl)n2)CC1 [Compound 11, 4-(2,4-Dichloro-phenyl)-2-[1-(2-methoxy-phenyl)-cyclopropyl]-5-methyl-pyrimidine]
- melting point: 46 to 48 °C
